Measured values taken from US20240327768A1, “MICROFLUIDIC DEVICE MIMICKING TUMOR MICROENVIRONMENT” (The Texas A&M University System, priority 2021, published 2024).

Assays:
ovarian cancer cell = details: in vitro study; cited from earlier work
[1] = tested on: A2780 epithelial ovarian cancer cells; test: Cancer cell ECM invasion in OTME-Chip (A2780); type: cell-based, human; details: OTME-Chip with extravasated platelets, analyzed for three days; Revacept 40 μg/mL, cisplatin 6 μg/mL
Text: OTME-Chip predicts that pharmaceutical inhibition of GPVI arrests metastasis and supports chemotherapy. The potential consequences of pharmaceutical targeting of GPVI on platelets in cancer were then investigated. There are currently no FDA-approved anti-GPVI drugs in the market. However, Revacept is an inhibitor that has been successfully evaluated against collagen-mediated platelet adhesion in phase I clinical trials of atherosclerosis and stroke. Revacept inhibited the platelet GPVI and tumor galectin-3 interaction in a colon carcinoma cell line. This drug is a fusion protein consisting of the Fc part of human IgG, a short hinge region, a specific linker sequence, and the extracellular part of human platelet GPVI with a molecular mass of 150 kDa. […] Thereafter, these chips were analyzed for three days (FIG. 7). […]
Cell invasion. […] Invasion dynamics of live stained cancer cells (green) into the Chip ECM chamber hydrogel was visualized using fluorescence microscopy (Zeiss Axio Observer; LD Plan Neofluar 10×, NA 0.4). […] Images were analyzed and processed using software ZEN 2.3 lite (ZEISS). […] The ECM invasion of cancer cells was calculated as the ratio of area occupied by invaded cancer cells in ECM chamber vs. the total area of ECM chamber.

[2] = tested on: A2780 epithelial ovarian cancer cells; test: Cancer cell proliferation assay (Ki67) in OTME-Chip; type: cell-based, human; details: OTME-Chip with extravasated platelets; Revacept 40 μg/mL, cisplatin 6 μg/mL
Protocol: (§1) Drugs. Cisplatin (Fisher Scientific, USA) and Revacept (Advancecor GamBH, Germany) were dissolved in DMSO and PBS/4% Mannitol/1% Sucrose respectively to prepare master stocks (1 mg/mL). These were further diluted in RMPI-1640 media to obtain respective working concentrations of cisplatin (6 μg mL^−1) and Revacept (40 μg mL^−1). They were perfused into the chip tumor chamber individually or in combination in presence or absence of extravasated platelets.
Cancer cell proliferation assay. Isolated cancer cells were immunostained with monoclonal anti-Ki67 antibody-Alexa Fluor488 conjugate (Abcam). The fluorescence intensity was then measured with a plate reader using excitation/emission wavelengths of 488/519 nm. Platelet free cancer cells obtained from other chips during similar time points were kept as control. Proliferation rate was measured as a percentage ratio of fluorescent intensities of experimental and control cells.

[3] = tested on: A2780 epithelial ovarian cancer cells; test: Cell cycle analysis of cancer cells from OTME-Chip; type: cell-based, human; details: OTME-Chip with extravasated platelets, compared to untreated controls; Revacept 40 μg/mL, cisplatin 6 μg/mL
Protocol: as §1
Cell cycle analysis. Cancer cells isolated via Accutase™ treatment from the chip were fixed in 70% ethanol at […] for 6 hr and permeabilized. Cells were then incubated with 100 μg mL^−1 Propidium Iodide (PI) (Sigma-Aldrich), and 50 μg mL^−1 ribonuclease A in the dark for 30 min at 37° C. Flow cytometry was performed on a BD Accuri C6 flow cytometer (BD Biosciences, USA) and cell cycle analysis was done using CellQuest Pro software.

[4] = tested on: growth factors (PDGF, VEGF, and TGFβ) and cytokines (IL-8, MMP9, and IL-6); test: Growth factors and cytokines in OTME-Chip tumor chamber effluents (multiplex); type: cell-based, human; details: Revacept 40 μg/mL, cisplatin 6 μg/mL
Protocol: as §1
Growth factors and cytokines. Growth factors and cytokines present in OTME-Chip tumor chamber media effluents were measured using multiplex (xMAP) magnetic bead-based technology provided by Millipore. Media effluents collected from tumor chamber during different time points were analyzed for cytokines and growth factors using MILLIPLEX® MAP Human cytokine/chemokine magnetic bead panel kit (Millipore, CAS-HCYTOMAG-60K) by following previously established protocols. Assays were run in a pre-calibrated Luminex MAPGPIX reader. The mean fluorescent intensity (MFI) of the magnetic beads correlating with the concentration (pg/mL) of respective cytokines and growth factors was calculated using xPONENT 4.2 software and data analysis was done with Milliplex Analyst 5.1 software (Millipore). The concentration of cytokines obtained in each sample was normalized with respect to controls and the assays were run in triplicate. […]

[5] = tested on: metastasis and cell proliferation genes; test: Transcriptional analysis (qRT-PCR) of cancer cells from OTME-Chip; type: cell-based, human; details: cancer cells obtained from the chips, over time; Revacept 40 μg/mL, cisplatin 6 μg/mL
Protocol: as §1
Quantitative real-time PCR. Cancer cell total RNA was isolated using the Arcturus PicoPure RNA Isolation Kit specifically (Thermofisher Scientific, CAS-KIT0214) designed to recover high-quality RNA consistently from fewer cells. Cells isolated from the Chip were washed in prescribed in buffer (0.9 mL of 1×PBS/10% BSA; 0.1 mL of 0.5 M EDTA) and total cellular RNA was isolated by using the manufacturer's protocol. […] The cDNA prepared was further used for the subsequent quantitative qRT-PCR reactions using SyBR green master mix (Applied Biosystems™ SYBR™ Green select PCR Master Mix) and gene specific primers. […] Gene expression was analyzed by quantifying the relative fold changes in mRNA levels of individual genes using comparative Cycle Threshold (CT)/ACT method.

[6] = tested on: A2780 epithelial ovarian cancer cells; test: RNA sequencing and differential gene analysis of chip-derived tumors; type: cell-based, human; details: RNA-seq of chip-derived tumors
Protocol: Validation of cancer cell-platelet-drug crosstalk within OTME-Chip with next generation RNA-sequencing. It was recently shown that a collaboration of organ-chip technology with RNA-seq analysis is a powerful tool to validate preclinical studies and derive unbiased clinical predictions. Therefore, to solidify insights into the platelet-tumor signaling nexus and the therapeutic effect of Revacept, transcriptomic profiling was performed of different chip-derived tumors through RNA sequencing. Through RNA sequencing and differential gene analysis, expression of 12452 genes in the OTME-Chip relative to Control-Chip was detected. Similarly, expression of 5566, 6909 and 3821 genes in the Cx-OTME-Chip, CxRx-OTME-Chip and KO-OTME-Chip respectively relative to Control-Chip was detected. […]
RNA sequencing and analysis. […] Isolated mRNA samples were then analyzed using the NextSeq 500 platform (Illumina) and sample preparation was performed using TruSeqRNA sample preparation with paired-end read length of 2×75 bases (Molecular Genomics Workspace, Texas A&M University, College Station, TX). Then HISAT2 was used to splice align the reads to latest ENSEMBL-release-102 human genome/transcriptome (GRCh38.p13). […] Differentially expressed genes were then evaluated for all groups using DESeq2 package in R®. […]

| Structure (SMILES) | platelet-induced ovarian cancer cell invasion (ovarian cancer cell) | ECM invasion of cancer cells / tumor invasiveness [1] | proliferation rate of the cancer cells [2] | G2/M phase in cancer cells [3] | concentration of growth factors (PDGF, VEGF, TGFβ) and cytokines (IL-8, MMP9, IL-6) [4] | platelet-induced upregulation of metastasis and cell proliferation genes [5] | expression of genes of signaling pathways (NFκB, TGFβ/Smad, Hippo, MAPK, mTOR, Notch, PI3-Akt, Wnt), volcano plots [6] | expression of these pathways, heatmaps of expression profiles ([6]; different chip conditions) |
| --- | --- | --- | --- | --- | --- | --- | --- | --- |
| CC(=O)Oc1ccccc1C(=O)O [aspirin, acetylsalicylic acid] | attenuated |  |  |  |  |  |  |  |
| N.N.[Cl][Pt][Cl] [cisplatin, reference compound] |  | modest effect | modest effect | modest effect | modest effect | altered overtime modestly | reduced | downregulated |
